Assays:
balb/c mouse hepatocytes = test: Hepatocyte stability, balb/c mouse; format: in vitro ADME; conditions: 2 μM, 0.5 million cells/ml
Protocol: (§1) In this study, human, cynomolgus monkey, beagle dog, wistar hannover rat, and balb/c mouse hepatocyle stability was determined.

PAMPA (pH 7.4) = format: in vitro ADME; conditions: pH = 7.4
Protocol: Each stock solution was diluted to 50 M in pH 7.4 Prisma HT buffer (pION) and 200 μl was added to each well of the donor plate in triplicate. The polyvinylidene fluoride (PVDF, 0.45 μm) filter membrane on the acceptor plate was coated with 5 μl gastrointestinal tract lipid formulation (GIT-0, pION) and to each well of the acceptor plate, 200 μl of acceptor sink buffer (pION) was added. The acceptor filter plate was then carefully placed on top of the donor plate to form a sandwich. The sandwich was incubated at 25° C. for 4 h without stirring. UV-vis spectra of the solutions in the blank, reference, acceptor and donor plates were measured using a microplate reader (Tecan Infinite 200PRO M Nano Plus). Permeability values were calculated using the PAMPA explorer software v.

[1] = Plasma stability, rat plasma (Wistar Han / wistar hannover; Table 5 head SD Rat); format: in vitro ADME; conditions: wistar hannover rat plasma, 2 μM, anti-coagulant K2-EDTA; for % Remaining at T120: 120 min
human hepatocytes = test: Hepatocyte stability, human; format: in vitro ADME; conditions: 2 μM, 0.5 million cells/ml; for % Remaining At T120 / T1/2: 120 min
Protocol: as §1

[2] = Plasma stability, beagle dog plasma (K2EDTA); format: in vitro ADME; conditions: beagle dog plasma, 2 μM, anti-coagulant K2-EDTA; for % Remaining at T120: 120 min
beagle dog hepatocytes = test: Hepatocyte stability, beagle dog; format: in vitro ADME; conditions: 2 μM, 0.5 million cells/ml
Protocol: as §1

CYP2B6 = target: T1, CYP2B6 (Homo sapiens, UniProt P20813); test: CYP450 panel inhibition in human liver microsomes, 2B6 (bupropion); conditions: 10 μM, substrate bupropion
T1 sequence (P20813 1-491): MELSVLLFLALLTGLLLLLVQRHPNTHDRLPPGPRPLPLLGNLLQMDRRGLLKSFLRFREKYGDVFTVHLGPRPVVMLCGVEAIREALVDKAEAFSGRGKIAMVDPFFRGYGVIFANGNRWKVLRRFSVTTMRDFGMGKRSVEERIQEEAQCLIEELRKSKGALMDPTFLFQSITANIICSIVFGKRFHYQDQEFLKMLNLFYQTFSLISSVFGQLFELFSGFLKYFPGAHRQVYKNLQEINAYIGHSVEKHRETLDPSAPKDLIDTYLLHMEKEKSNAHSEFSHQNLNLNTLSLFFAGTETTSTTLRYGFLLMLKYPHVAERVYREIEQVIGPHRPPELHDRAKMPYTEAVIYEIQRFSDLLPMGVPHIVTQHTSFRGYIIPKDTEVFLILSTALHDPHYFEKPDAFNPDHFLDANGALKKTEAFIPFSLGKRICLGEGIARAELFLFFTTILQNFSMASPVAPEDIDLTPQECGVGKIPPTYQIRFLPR

[3] = Plasma stability, mouse plasma (Balb/c; Table 5 head CD-1 Mouse); format: in vitro ADME; conditions: balb/c plasma, 2 μM, anti-coagulant K2-EDTA; for % Remaining at T120: 120 min
[4] = system: cynomolgus monkey hepatocytes; test: Hepatocyte stability, cynomolgus monkey; format: in vitro ADME; conditions: 2 μM, 0.5 million cells/ml
Protocol: as §1

Caco-2 cells = test: Caco-2 bidirectional permeability (absorption & efflux); conditions: Example 47
CYP3A4 = CYP3A4 (Homo sapiens, UniProt P08684); test: CYP450 panel inhibition in human liver microsomes, 3A4 (midazolam / testosterone); conditions: 10 μM; for CYP-3A4 (Midazolam) mean percentage CYP inhibition: substrate midazolam; for CYP-3A4 (Testosterone) mean percentage CYP inhibition: substrate testosterone
CYP2D6 = CYP2D6 (Homo sapiens, UniProt P10635); test: CYP450 panel inhibition in human liver microsomes, 2D6 (dextromethorphan); conditions: 10 μM, substrate dextromethorphan
[5] = system: wistar hannover rat hepatocytes; test: Hepatocyte stability, wistar hannover rat; format: in vitro ADME; conditions: 2 μM, 0.5 million cells/ml
Protocol: as §1

Sequence of CYP3A4 (P08684 whole entry): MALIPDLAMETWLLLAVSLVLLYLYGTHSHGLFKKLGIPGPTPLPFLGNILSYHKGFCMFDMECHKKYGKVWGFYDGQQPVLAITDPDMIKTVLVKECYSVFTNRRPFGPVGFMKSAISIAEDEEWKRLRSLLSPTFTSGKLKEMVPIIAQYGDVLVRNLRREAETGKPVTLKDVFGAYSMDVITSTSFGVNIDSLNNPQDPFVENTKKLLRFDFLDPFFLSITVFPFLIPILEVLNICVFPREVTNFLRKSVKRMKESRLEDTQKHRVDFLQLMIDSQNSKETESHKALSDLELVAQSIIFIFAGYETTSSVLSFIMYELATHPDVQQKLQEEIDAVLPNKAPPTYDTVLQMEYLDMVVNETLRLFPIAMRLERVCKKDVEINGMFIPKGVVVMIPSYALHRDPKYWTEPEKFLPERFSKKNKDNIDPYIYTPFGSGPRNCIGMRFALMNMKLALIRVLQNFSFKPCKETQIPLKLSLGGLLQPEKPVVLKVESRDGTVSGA
Sequence of CYP2D6 (P10635 whole entry): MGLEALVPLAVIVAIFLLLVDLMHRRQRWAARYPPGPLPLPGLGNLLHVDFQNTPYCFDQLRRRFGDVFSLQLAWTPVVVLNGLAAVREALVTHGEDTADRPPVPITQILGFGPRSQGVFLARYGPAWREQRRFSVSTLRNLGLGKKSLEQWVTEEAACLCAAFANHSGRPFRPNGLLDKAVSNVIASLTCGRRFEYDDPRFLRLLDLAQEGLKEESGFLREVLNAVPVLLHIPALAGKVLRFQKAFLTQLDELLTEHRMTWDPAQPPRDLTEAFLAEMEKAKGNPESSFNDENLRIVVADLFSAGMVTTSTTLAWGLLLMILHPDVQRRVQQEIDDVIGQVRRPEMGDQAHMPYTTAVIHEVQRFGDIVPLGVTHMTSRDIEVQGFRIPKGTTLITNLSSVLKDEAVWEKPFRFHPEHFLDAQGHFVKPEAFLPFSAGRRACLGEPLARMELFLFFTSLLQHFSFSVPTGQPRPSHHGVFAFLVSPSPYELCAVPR

**Q.** What does the source list for CNS(=O)(=O)Nc1cccc(Cc2c(CN(C)C)c3ccc(OC(=O)N(C)C)cc3oc2=O)c1F [Compound 9]?
**A.** % Remaining At T120 (balb/c mouse hepatocytes): 73.8%; CLint (L/hr/kg) (balb/c mouse hepatocytes): 3.58 L/h/kg; CLint (mL/min/kg) (balb/c mouse hepatocytes): 59.7 mL/min/kg; T1/2 (balb/c mouse hepatocytes): 4.57 h; PAMPA (pH = 7.4; Papp 10^−6 cm/s) (PAMPA (pH 7.4)): 37 10^−6 cm/s; T1/2 [1]: 19.67 h; % Remaining at T120 [1]: 93.4%; CLint (L/hr/kg) (human hepatocytes): 1.93 L/h/kg; CLint (mL/min/kg) (human hepatocytes): 32.2 mL/min/kg; % Remaining At T120 (human hepatocytes): 48.9%; T1/2 (human hepatocytes): 1.93 h; T1/2 [2]: >2 h; % Remaining at T120 [2]: 100.5%; % Remaining At T120 (beagle dog hepatocytes): 66.2%; CLint (L/hr/kg) (beagle dog hepatocytes): 2.22 L/h/kg; CLint (mL/min/kg) (beagle dog hepatocytes): 36.9 mL/min/kg; T1/2 (beagle dog hepatocytes): 3.37 h; CYP-2B6 (Bupropion) mean percentage CYP inhibition (CYP2B6): −2.5%; T1/2 [3]: 8.78 h; % Remaining at T120 [3]: 86.0%; % Remaining At T120 [4]: 44.3%; CLint (L/hr/kg) [4]: 3.30 L/h/kg; CLint (mL/min/kg) [4]: 54.9 mL/min/kg; T1/2 [4]: 1.7 h; A − B Permeability Ranking (Caco-2 cells): Higher; Mean Efflux Ratio (Caco-2 cells): 1.32; Mean Papp A − B (10^−6 cm/s) (Caco-2 cells): 16.4 10^−6 cm/s; Mean Papp B − A (10^−6 cm/s) (Caco-2 cells): 21.7 10^−6 cm/s; CYP-3A4 (Midazolam) mean percentage CYP inhibition (CYP3A4): 9.6%; CYP-3A4 (Testosterone) mean percentage CYP inhibition (CYP3A4): 30.9%; CYP-2D6 (Dextromethorphan) mean percentage CYP inhibition (CYP2D6): 4.4%; % Remaining At T120 [5]: 34.9%; CLint (L/hr/kg) [5]: 2.84 L/h/kg; CLint (mL/min/kg) [5]: 47.3 mL/min/kg; T1/2 [5]: 1.32 h

**Q.** What does the source list for CCCS(=O)(=O)Nc1cccc(Cc2c(CN3CCNCC3)c3cc(Cl)c(OC(=O)N(C)C)cc3oc2=O)c1F [Compound 167]?
**A.** % Remaining At T120 (balb/c mouse hepatocytes): 52.5%; CLint (L/hr/kg) (balb/c mouse hepatocytes): 7.61 L/h/kg; CLint (mL/min/kg) (balb/c mouse hepatocytes): 127 mL/min/kg; T1/2 (balb/c mouse hepatocytes): 2.15 h; T1/2 [1]: >2 h; % Remaining at T120 [1]: 106.9%; CLint (L/hr/kg) (human hepatocytes): 1.67 L/h/kg; CLint (mL/min/kg) (human hepatocytes): 27.9 mL/min/kg; % Remaining At T120 (human hepatocytes): 53.8%; T1/2 (human hepatocytes): 2.23 h; T1/2 [2]: >2 h; % Remaining at T120 [2]: 106.2%; % Remaining At T120 (beagle dog hepatocytes): 17.7%; CLint (L/hr/kg) (beagle dog hepatocytes): 9.31 L/h/kg; CLint (mL/min/kg) (beagle dog hepatocytes): 155 mL/min/kg; T1/2 (beagle dog hepatocytes): 0.8 h; CYP-2B6 (Bupropion) mean percentage CYP inhibition (CYP2B6): 19.8%; T1/2 [3]: >2 h; % Remaining at T120 [3]: 100.5%; % Remaining At T120 [4]: 29.0%; CLint (L/hr/kg) [4]: 5.02 L/h/kg; CLint (mL/min/kg) [4]: 83.7 mL/min/kg; T1/2 [4]: 1.12 h; A − B Permeability Ranking (Caco-2 cells): Lower; Mean Efflux Ratio (Caco-2 cells): 23.2; Mean Papp A − B (10^−6 cm/s) (Caco-2 cells): 0.845 10^−6 cm/s; Mean Papp B − A (10^−6 cm/s) (Caco-2 cells): 19.6 10^−6 cm/s; CYP-3A4 (Midazolam) mean percentage CYP inhibition (CYP3A4): 54.8%; CYP-3A4 (Testosterone) mean percentage CYP inhibition (CYP3A4): 51.2%; CYP-2D6 (Dextromethorphan) mean percentage CYP inhibition (CYP2D6): 10.1%; % Remaining At T120 [5]: 31.0%; CLint (L/hr/kg) [5]: 3.16 L/h/kg; CLint (mL/min/kg) [5]: 52.6 mL/min/kg; T1/2 [5]: 1.18 h

Source: US20250179057A1, “MEK IMMUNE ONCOLOGY INHIBITORS AND THERAPEUTIC USES THEREOF” (Immuneering Corporation, priority 2022, published 2025)
